Legend:
4T1 breast tumor model [1] = test: Efficacy of AS1517499-loaded liposomes on tumor growth in the 4T1 breast tumor model; type: in vivo, mice; conditions: 8 mg/kg, intravenous route, twice weekly
Protocol: (§1) For efficacy analysis of AS1517499-loaded liposomes, 1×10^5 Luc-cells were injected into the mammary fat pad, and tumors were allowed to develop to a size of 100 mm^3. Thereupon, treatment with AS1517499-loaded liposomes (8 mg/kg, intravenous administrations, twice a week) was started. Before sacrifice, mice were injected with 2.5 mg of D-Luciferin (Perkin-Elmer, Waltham, MA) and were imaged after 15 minutes to detect bioluminescence signal using a Pearl Trilogy imager (LICOR).
Mouse 4T1-Luc cells were injected orthotopic into the mammary fat pad of BalbC mice. The mice were randomly assigned into five groups: a) treated with PBS as the vehicle group, b) treated with free AS, c) treated with AS-HSPC liposomes, d) treated with AS-PAzPC liposomes, e) treated with empty PAzPC liposomes. […] Since the loading of the AS1517499 was little in the liposomes, 8 mg/kg was injected, intravenous route, twice weekly.

[2] = tested on: 4T1 orthotopic tumor model; conditions: free AS1517499, 20 mg/kg; i.p route; cited from earlier work
4T1 breast tumor model [3] = test: Effect of AS-loaded liposomes on pre-metastatic niche in liver and lungs (qPCR); type: in vivo, mice; conditions: compared to the vehicle group
Protocol: as §1
TAMs display a number of pro-tumoral functions, including extracellular matrix remodeling, neoangiogenesis, suppression of adaptive immunity and facilitate tumor metastasis (Allavena et al. 2012 Exp. Immunol. 167, 195-205, doi:10.1111/j.1365-2249.2011.04515.x). […] As most of cancer related mortalities occur due to metastasis, the effect of AS-loaded liposomes on the pre-metastatic niche in the organs (liver and lungs) of the 4T1 breast tumor was examined using qPCR analysis (FIG. 9).

THP-1 macrophages [4] = test: Cell growth after 24-hour treatment of MTP-PE and IFNγ; type: cell-based, human; conditions: IFNγ 20 ng/ml
Protocol: FIG. 12. In vitro effects of MTP-PE and IFNγ in differentiated THP-1 macrophages. qPCR analysis of macrophage differentiation with MTP-PE with or without IFNγ for M1 markers IL-1β, IL-6, TNFα and M2 markers for DC-SIGN. […] B) The cell growth was evaluated after 24-hour treatment of MTP-PE and IFNγ C) MTP-PE, in synergy with IFNγ activates tumoricidal properties by inducing more M1 markers. Bars represent mean+SEM, n=3 *p<0.05, **p<0.005, ***p<0.001.
(§2) (IL-1β and TNFα) in TAMs, which indicates the switch of M2 macrophages toward M1 phenotype (FIG. 12A). In the second experiment, IFNγ, a well-known inducer of M1 macrophage differentiation, was tested (Sica et al. 2012 J. Clin. Invest. 122, 787-795, doi:10.1172/JCI59643), and MTP-PE to understand the role of IFNγ potentiation effect on macrophage reprogramming.

THP-1 macrophages [5] = test: Effect of MTP-PE and IFNγ on differentiated THP-1 macrophages (qPCR); type: cell-based, human; conditions: for DC-SIGN (M2 marker) expression in TAMs: second experiment, with or without IFNγ
Protocol: (§3) Macrophages were differentiated as reported in [7]. Briefly, THP-1 cells were treated for 24 hours with 100 ng/ml of phorbol 12-myristate 13-acetate (PMA, Cayman Chemicals) to allow their attachment. The medium was replaced by medium containing 20 ng/ml IL-4 and IL-13 (Peprotech, London, UK) for M2 differentiation, or 20 ng/ml IFNγ (Peprotech) and 100 ng/ml LPS (Sigma Aldrich) for M1 differentiation. Cells were incubated with cytokines for 24 hours (gene expression on differentiation), and 72 hours (liposome uptake experiments). BMDMs were plated overnight with a density of 50,000 cells/ml. After 24 hours, medium was aspirated. Cells were incubated for 24 hours in complete RPMI medium containing IL-4 and IL-13 at 10 ng/ml (M2 differentiation) or LPS and IFN-γ at 100 and 10 ng/ml. In case of RAW264.7 cells, M1 macrophages were differentiated using 10 ng-mL murine recombinant IFNγ and 10 ng-mL LPS. M2 macrophages were differentiated using 10 ng-mL murine IL-4 and IL-13.
(§4) 0.5×10^6 RAW264.7/THP-1 cells were plated in 12-well plates, if applicable treated with respective cytokines for differentiation, and activated using PMA. Cells were then incubated with different liposomal preparations (50 μM) or differentiation cytokines for 24 hours. BMDM were differentiated as described above. After differentiation, cells were washed with PBS and then lysed using lysis buffer and total RNA was isolated using SV Total RNA Isolation System (Promega, Madison, WI). cDNA was prepared by using iScript cDNA synthesis kit (Bio-Rad, Hercules, CA) and qRT-PCR was performed with 10 ng of cDNA per reaction mixture using SYBR green assay (Bioline, London, UK). Reactions were measured using the CFX384 Real-Time PCR detection system (Bio-Rad). The threshold cycles (Ct) values were calculated and relative gene expression (ddCt method) was analyzed after normalization using the Rsp18 (THP-1) or Gapdh (RAW264.7/BMDM) house-keeping gene.
Next, the effect of MTP-PE on differentiated human macrophages THP-1 was investigated.
as §2

RAW 264.7 macrophages = test: Effect of MTP-PE on differentiated RAW 264.7 macrophages (qPCR); type: cell-based, murine
Protocol: as §3, §4
To study the effect of MTP-PE, murine macrophages RAW 264.7 were first differentiated with IFNγ and LPS for M1 and with IL-4 and IL-13 for M2 macrophages (TAM). […]

[6] = increasing concentrations of MTP-PE

For NC(=O)c1cnc(NCCc2ccc(O)c(Cl)c2)nc1NCc1ccccc1 [AS1517499], the “Tumor volume/weight compared to the vehicle group” value (4T1 breast tumor model [1]) is listed as “no difference in tumor volume/weight”, the “Premetastatic niche in liver” value [2] is listed as “reduced premetastatic niche in liver” and the “Tumor volume compared to the vehicle group” value [2] is listed as “inhibited tumor volume significantly”. For the same molecule, the “CD31, collagen I, periostin, fibronectin expression in liver samples” value (4T1 breast tumor model [3]) was “no statistically significant difference”.

With “muramyl tripeptide-phosphatidyl ethanolamine [MTP-PE]” the Cell growth (THP-1 macrophages [4]) was “no direct effect on the cell growth”, the “DC-SIGN gene expression (M2 differentiation)” value (THP-1 macrophages [5]; 1 and 10 ug/ml, first experiment) was “reduced expression of DC-SIGN gene” and the “M1 type differentiation markers in presence of M1 cytokines” value (THP-1 macrophages [5]; data not shown) was “increased the M1 type differentiation markers”. The “M1 cytokine markers (IL-1β and TNFα) in TAMs” value (THP-1 macrophages [5]; first experiment) was “induced M1 cytokine markers”, the “DC-SIGN (M2 marker) expression in TAMs” value (THP-1 macrophages [5]) was “reduced the expression of DC-SIGN” and the “Cytokines (IL-1β, IL-6, TNFα) expression in M1 differentiation” value (RAW 264.7 macrophages; MTP-PE dose-dependent conc., in presence of IFNγ) was “increasing the cytokines (IL-1β, IL-6, TNFα) expression”. For the same molecule, the “M2 macrophage markers (MRC-1, ARG-1) in M2 macrophages” value (RAW 264.7 macrophages; [6]) was “did not show any inhibition” and the “TNFα expression in M2-type macrophages” value (RAW 264.7 macrophages; [6]) was “increased TNFα expression”.

B1: IFNγ: cytokine that activates inflammatory M1-type macrophages (protein, UniProt P01579 24-161, looked up)
Interferon gamma: QDPYVKEAENLKKYFNAGHSDVADNGTLFLGILKNWKEESDRKIMQSQIVSFYFKLFKNFKDDQSIQKSVETIKEDMNVKFFNSNKKKRDDFEKLTNYSVTDLNVQRKAIHELIQVMAELSPAAKTGKRKRSQMLFRG
In the case of B1, the Cell growth (THP-1 macrophages [4]) is reported as “reduced the cell growth significantly” and the “DC-SIGN (M2 marker) expression in TAMs” value (THP-1 macrophages [5]) is reported as “increased expression of DC-SIGN”.
